Test results reported in ChEMBL document CHEMBL4425143, “Design and synthesis of new homo and hetero bis-piperazinyl-1-propanone derivatives as 5-HT7R selective ligands over 5-HT1AR” (Bioorg Med Chem Lett, 2016).

How the values were obtained:
[1] = molecular target: T1, 5-hydroxytryptamine receptor 7 (Homo sapiens, UniProt P34969); experiment: Displacement of [3H]-5-HT from human 5-HT7 receptor expressed in CHOK1 cell membranes after 30 mins by liquid scintillation spectrometry
[2] = molecular target: T2, 5-hydroxytryptamine receptor 1A (Homo sapiens) (UniProt P08908); experiment: Displacement of [3H]-8-OH-DPAT from human 5-HT1A receptor expressed in CHOK1 cell membranes at 10^-5M after 30 mins by liquid scintillation spectrometry
T2 sequence (whole entry): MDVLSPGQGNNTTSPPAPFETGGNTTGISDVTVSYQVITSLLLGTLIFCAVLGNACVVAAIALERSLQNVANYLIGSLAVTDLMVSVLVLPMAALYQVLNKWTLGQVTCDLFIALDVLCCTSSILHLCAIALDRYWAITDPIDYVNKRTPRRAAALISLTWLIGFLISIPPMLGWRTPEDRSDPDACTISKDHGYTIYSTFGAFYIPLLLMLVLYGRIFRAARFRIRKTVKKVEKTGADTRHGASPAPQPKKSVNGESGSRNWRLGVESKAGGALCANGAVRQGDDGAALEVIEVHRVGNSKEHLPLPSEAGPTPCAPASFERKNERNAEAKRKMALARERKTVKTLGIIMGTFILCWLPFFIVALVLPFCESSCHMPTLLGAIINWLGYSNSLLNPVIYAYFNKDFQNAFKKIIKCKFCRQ

[3] = molecular target: T3, 5-hydroxytryptamine receptor 1A (Homo sapiens, UniProt P08908); experiment: Displacement of [3H]-8-OH-DPAT from human 5-HT1A receptor expressed in CHOK1 cell membranes after 30 mins by liquid scintillation spectrometry
T3 sequence (P08908 whole entry): T2 sequence (whole entry)

[4] = Dissociation constant, pKa of the compound at pH 7.4; assay type: physicochemical
[5] = molecular target: T1, 5-hydroxytryptamine receptor 7; experiment: Displacement of [3H]-5-HT from human 5-HT7 receptor expressed in CHOK1 cell membranes at 10^-5M after 30 mins by liquid scintillation spectrometry

T1 sequence (P34969 whole entry): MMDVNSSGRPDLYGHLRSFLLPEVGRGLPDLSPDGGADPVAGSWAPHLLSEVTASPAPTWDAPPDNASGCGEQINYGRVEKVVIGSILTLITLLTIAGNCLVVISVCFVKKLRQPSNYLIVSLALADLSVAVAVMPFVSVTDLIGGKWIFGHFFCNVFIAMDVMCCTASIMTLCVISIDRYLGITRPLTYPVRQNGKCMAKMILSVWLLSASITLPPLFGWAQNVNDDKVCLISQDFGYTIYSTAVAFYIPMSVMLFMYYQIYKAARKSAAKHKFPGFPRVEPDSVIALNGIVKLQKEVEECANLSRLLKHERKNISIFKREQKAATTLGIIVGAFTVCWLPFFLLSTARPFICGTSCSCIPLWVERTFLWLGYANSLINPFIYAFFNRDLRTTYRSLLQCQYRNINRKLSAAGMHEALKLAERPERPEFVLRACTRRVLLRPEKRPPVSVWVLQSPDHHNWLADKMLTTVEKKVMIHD

| SMILES | Ki [1] | inhibition [2] | Ki [3] | pKa [4] | inhibition [5] |
| --- | --- | --- | --- | --- | --- |
| O=C(CCN1CCN(c2ccc(Cl)cc2)CC1)N1CCN(c2cccc(Cl)c2)CC1 | 2370 nM |  | 302 nM |  |  |
| O=C(CCN1CCN(c2ccccc2)CC1)N1CCN(c2cccc(Cl)c2)CC1 |  |  | 1070 nM |  | < 50% |
| O=C(CCN1CCN(c2ccc(Cl)cc2)CC1)N1CCN(c2ccccc2)CC1 | 462 nM |  | 1680 nM |  |  |
| O=C(CCNCc1ccccc1)N1CCN(c2ccccc2)CC1 |  |  | 938 nM |  | < 50% |
| O=C(CCN1CCN(Cc2ccccc2)CC1)NCc1ccccc1 | 4.34 nM |  | 0.34 nM |  |  |
| O=C(CCN1CCN(c2cccc(Cl)c2)CC1)N1CCN(c2cccc(Cl)c2)CC1 | 2760 nM |  | 142 nM |  |  |
| O=C(CCN1CCN(Cc2ccccc2)CC1)N1CCN(c2cccc(Cl)c2)CC1 | 54.7 nM |  | 101 nM |  |  |
| O=C(CCCCN1CCN(c2ccccc2)CC1)N1CCN(c2ccccc2)CC1 | 197 nM |  | 350 nM |  |  |
| COc1ccc(N2CCN(C(=O)CCN3CCN(Cc4ccccc4)CC3)CC2)cc1 |  | < 50% |  |  | < 50% |

Further lines, results first:

| Ki [1] | inhibition [2] | Ki [3] | pKa [4] | inhibition [5] | SMILES |
| --- | --- | --- | --- | --- | --- |
| 50.2 nM | < 50% |  |  |  | O=C(CCN1CCN(Cc2ccccc2)CC1)N1CCN(c2ccccc2Cl)CC1 |
| 26.2 nM |  | 272 nM | 8.11 |  | O=C(CCN1CCN(c2ccccc2)CC1)N1CCN(c2ccccc2)CC1 |
| 176 nM |  | 3750 nM |  |  | O=C(CCNCc1ccccc1)NCc1ccccc1 |
| 119 nM |  | 15.2 nM |  |  | CCOc1ccccc1N1CCN(CCC(=O)N2CCN(c3cccc(Cl)c3)CC2)CC1 |
| 23.5 nM | < 50% |  |  |  | O=C(CCN1CCN(Cc2ccccc2)CC1)N1CCN(c2ncccn2)CC1 |
| 32.7 nM |  | 33.5 nM |  |  | O=C(CCN1CCN(c2cccc(Cl)c2)CC1)N1CCN(c2ccccc2)CC1 |
| 24.2 nM | < 50% |  |  |  | COc1ccccc1N1CCN(C(=O)CCN2CCN(Cc3ccccc3)CC2)CC1 |
| 80.3 nM |  | 81.8 nM |  |  | CCOc1ccccc1N1CCN(CCC(=O)N2CCN(c3ccccc3)CC2)CC1 |
| 36.6 nM | < 50% |  |  |  | O=C(CCN1CCN(Cc2ccccc2)CC1)N1CCN(c2ccc(Cl)cc2)CC1 |
| 29.5 nM | < 50% |  |  |  | O=C(CCN1CCN(Cc2ccccc2)CC1)N1CCN(c2ccccn2)CC1 |
| 52 nM | < 50% |  | 8.55 |  | O=C(CCN1CCN(Cc2ccccc2)CC1)N1CCN(c2ccccc2)CC1 |
